Patent publication US9024017B2, “Octahydro-cyclopentapyrrolyl antagonists of CCR2” (Janssen Pharmaceutica NV, priority 2012, dated 2015)

target: T1, CCR2 (Homo sapiens, UniProt P41597); assay: MCP-1 Receptor Binding Assay in THP-1 Cells; conditions: read-out: MCP1B_v3 IC50
T1 construct: host or cells: THP-1 (human monocytic cell line)
Procedure, shortened: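 Human monocytic THP-1 cells incubated 2 h at 30 °C with 0.5 nM 125I-MCP-1 and varying concentrations of test compound or unlabelled MCP-1. Cells filter-harvested and counted by scintillation; blank subtracted, compared with vehicle; nonspecific binding with 1 μM cold MCP-1.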

T1 sequence (P41597 whole entry): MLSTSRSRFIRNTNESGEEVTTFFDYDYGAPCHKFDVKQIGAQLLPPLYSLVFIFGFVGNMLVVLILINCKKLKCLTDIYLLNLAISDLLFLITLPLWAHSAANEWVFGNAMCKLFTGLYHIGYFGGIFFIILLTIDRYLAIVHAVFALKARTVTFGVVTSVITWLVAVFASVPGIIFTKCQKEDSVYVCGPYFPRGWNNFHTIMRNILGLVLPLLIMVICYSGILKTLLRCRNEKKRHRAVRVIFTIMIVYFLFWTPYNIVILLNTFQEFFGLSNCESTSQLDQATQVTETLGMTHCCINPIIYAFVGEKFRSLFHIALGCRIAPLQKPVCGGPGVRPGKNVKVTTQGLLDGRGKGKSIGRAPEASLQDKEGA

Row | SMILES | IC50 [µM]
1 | COC1COCCC1N[C@@H]1C[C@H]2CN(C(=O)c3cocn3)C[C@@]2(C(=O)N2CCc3ncc(C(F)(F)F)cc3C2)C1 (relative stereo) [Example 72, ((3aR,5R,6aR)-5-(((3S*,4S*)-3-Methoxytetrahydro-2H-pyran-4-yl)amino)-2-(oxazole-4-carbonyl)octahydrocyclopenta[c]pyrrol-3a-yl)(3-(trifluoromethyl)-7,8-dihydro-1,6-naphthyridin-6(5H)-yl)methanone] | 0.03
2 | COc1ccc(COC(=O)N2C[C@@H]3C[C@@H](NC4CCOCC4OC)C[C@]3(C(=O)N3CCc4ncc(C(F)(F)F)cc4C3)C2)cc1 (relative stereo) [Example 61, (3aR,5R,6aR)-4-Methoxybenzyl 5-(((3S*,4S*)-3-methoxytetrahydro-2H-pyran-4-yl)amino)-3a-(3-(trifluoromethyl)-5,6,7,8-tetrahydro-1,6-naphthyridine-6-carbonyl)hexahydrocyclopenta-[c]pyrrole-2(1H)-carboxylate] | 0.39
3 | CCN1C[C@@H]2C[C@@H](NC3CCOCC3OC)C[C@]2(C(=O)N2CCc3ncc(C(F)(F)F)cc3C2)C1 (relative stereo) [Example 98, ((3aR,5R,6aR)-2-Ethyl-5-(((3S*,4S*)-3-methoxytetrahydro-2H-pyran-4-yl)amino)octahydrocyclopenta[c]pyrrol-3a-yl)(3-(trifluoromethyl)-7,8-dihydro-1,6-naphthyridin-6(5H)-yl)methanone] | 0.63
4 | COC1COCCC1N[C@@H]1C[C@H]2CN(C(=O)OCCC#N)C[C@@]2(C(=O)N2CCc3ncc(C(F)(F)F)cc3C2)C1 (relative stereo) [Example 52, (3aR,5R,6aR)-2-Cyanoethyl 5-(((3S*,4S*)-3-methoxytetrahydro-2H-pyran-4-yl)amino)-3a-(3-(trifluoromethyl)-5,6,7,8-tetrahydro-1,6-naphthyridine-6-carbonyl)hexahydrocyclopenta[c]pyrrole-2(1H)-carboxylate] | 0.13
5 | COC1COCCC1N[C@@H]1C[C@H]2CN(C(=O)CCN(C)C)C[C@@]2(C(=O)N2CCc3ncc(C(F)(F)F)cc3C2)C1 (relative stereo) [Example 77, 3-(Dimethylamino)-1-((3aR,5R,6aR)-5-(((3S*,4S*)-3-methoxytetrahydro-2H-pyran-4-yl)amino)-3a-(3-(trifluoromethyl)-5,6,7,8-tetrahydro-1,6-naphthyridine-6-carbonyl)hexahydrocyclopenta[c]pyrrol-2(1H)-yl)propan-1-one] | 0.23
6 | COC1COCCC1N[C@@H]1C[C@H]2CN(C(=O)OCc3ccccc3)C[C@@]2(C(=O)N2CCc3ncc(C(F)(F)F)cc3C2)C1 (relative stereo) [Example 56, (3aR,5R,6aR)-Benzyl 5-(((3S*,4S*)-3-methoxytetrahydro-2H-pyran-4-yl)amino)-3a-(3-(trifluoromethyl)-5,6,7,8-tetrahydro-1,6-naphthyridine-6-carbonyl)hexahydrocyclopenta[c]pyrrole-2(1H)-carboxylate] | 0.12
7 | COCCNC(=O)N1C[C@@H]2C[C@@H](NC3CCOCC3OC)C[C@]2(C(=O)N2CCc3ncc(C(F)(F)F)cc3C2)C1 (relative stereo) [Example 19, (3aR,5R,6aR)-N-(2-Methoxyethyl)-5-(((3S*,4S*)-3-methoxytetrahydro-2H-pyran-4-yl)amino)-3a-(3-(trifluoromethyl)-5,6,7,8-tetrahydro-1,6-naphthyridine-6-carbonyl)hexahydrocyclopenta[c]pyrrole-2(1H)-carboxamide] | 0.38
8 | CNC(=S)N1C[C@@H]2C[C@@H](N(C(=S)NC)C3CCOCC3OC)C[C@]2(C(=O)N2CCc3ncc(C(F)(F)F)cc3C2)C1 (relative stereo) [Example 28, (3aR,5R,6aR)-5-(1-((3S*,4S*)-3-Methoxytetrahydro-2H-pyran-4-yl)-3-methylthioureido)-N-methyl-3a-(3-(trifluoromethyl)-5,6,7,8-tetrahydro-1,6-naphthyridine-6-carbonyl)hexahydrocyclopenta[c]pyrrole-2(1H)-carbothioamide] | 0.25
9 | COC1COCCC1N[C@@H]1C[C@H]2CN(C(=O)CNC(C)=O)C[C@@]2(C(=O)N2CCc3ncc(C(F)(F)F)cc3C2)C1 (relative stereo) [Example 75, N-(2-((3aR,5R,6aR)-5-(((3S*,4S*)-3-Methoxytetrahydro-2H-pyran-4-yl)amino)-3a-(3-(trifluoromethyl)-5,6,7,8-tetrahydro-1,6-naphthyridine-6-carbonyl)hexahydrocyclopenta-[c]pyrrol-2(1H)-yl)-2-oxoethyl)acetamide] | 0.17
10 | COC1COCCC1N[C@@H]1C[C@H]2CN(C(=O)OCCC(F)(F)F)C[C@@]2(C(=O)N2CCc3ncc(C(F)(F)F)cc3C2)C1 (relative stereo) [Example 51, (3aR,5R,6aR)-3,3,3-Trifluoropropyl 5-(((3S*,4S*)-3-methoxytetrahydro-2H-pyran-4-yl)amino)-3a-(3-(trifluoromethyl)-5,6,7,8-tetrahydro-1,6-naphthyridine-6-carbonyl)hexahydrocyclo-penta[c]pyrrole-2(1H)-carboxylate] | 0.14
11 | CO[C@H]1COCC[C@H]1N[C@@H]1C[C@H]2CN(C(N)=O)C[C@@]2(C(=O)N2CCc3ncc(C(F)(F)F)cc3C2)C1 [Example 4] | 0.04
